Experimental findings from publication PMC12278645, “Design, synthesis, and antitumor activity of novel thioheterocyclic nucleoside derivatives by suppressing the c-MYC pathway” (Acta Pharmaceutica Sinica. B, 2025) are described below.

For experiment [1], the system named is CT26 (mouse colon cancer). The experiment can be described thus: CCK-8 anti-proliferation assay, CT26. The experiment is classed as cell-based. The conditions noted are these: CCK-8, 48 h, mean ± SD. The procedure:
(§1) To evaluate their spectrum of anti-proliferative activity, further CCK-8 assays were carried out with the selected compounds (5a/5b, 8a/8b, 33a/33b, and 36a/36b) on MCF-7 (human breast cancer), A375 (human malignant melanoma), DU145 (human prostate cancer), and CT26 (mouse colon cancer) cell lines. The selected compounds had moderate to potent antitumor activity on the four cell lines, indicating their broad spectrum of antitumor activity (Table 5).
(§2) MCF-7, A375, and HeLa cells were cultured in DMEM, HCT116 cells were cultured in McCoy's 5A medium, and DU145 and CT26 were cultured in RPMI 1640 with 10% FBS, 1% penicillin-streptomycin solution (10,000 U/mL penicillin and 10,000 μg/mL streptomycin) at 37 °C under 5% CO2. The cells were seeded in 96-well plates (4 × 10^3 cells/well) overnight and then treated with various concentrations (1–50 μmol/L) of the compound. After 48 h, the cell viability was measured by CCK-8 assay. The absorbance of each well was measured using a microplate reader (Multiskan FC, Thermo Fisher Scientific, Massachusetts, USA) at 450 nm wavelength. Assays were performed in triplicate. Compound concentrations that inhibited cell growth by 50% (IC50) were calculated from the dose–response curves of each cell line. Data are mean ± SD values from three independent experiments.

Experiment [2] has as its system A375 (human malignant melanoma). The experiment can be described thus: CCK-8 anti-proliferation assay, A375. The experiment is classed as cell-based. As to conditions: CCK-8, 48 h, mean ± SD. The procedure:
as §1, §2

Another experiment relates to HeLa cells. The experiment can be described thus: CCK-8 anti-proliferation assay, HeLa. The experiment is classed as cell-based, human. The conditions noted are these: CCK-8, 48 h, mean ± SD, three independent experiments. As for the experimental part: (§3) Tumor cell anti-proliferation activities were determined by cell counting kit-8 (CCK-8) assay.
as §2

In experiment [3] the test system is DU145 (human prostate cancer). The experiment can be described thus: CCK-8 anti-proliferation assay, DU145. The experiment is classed as cell-based. The conditions noted are these: CCK-8, 48 h, mean ± SD. The procedure:
as §1, §2

For experiment [4], the system named is MCF-7 (human breast cancer). The experiment can be described thus: CCK-8 anti-proliferation assay, MCF-7. The format is cell-based. As to conditions: CCK-8, 48 h, mean ± SD. As for the experimental part:
as §1, §2

Another experiment has as its system HCT116 cells. The experiment can be described thus: CCK-8 anti-proliferation assay, HCT116. The format is cell-based, human. The conditions noted are these: CCK-8, 48 h, mean ± SD, three independent experiments. The procedure:
as §3, §2

Turning to `CCCSc1nc(F)nc2c1ncn2C1(C(=O)OCC)CSCC1O` (stereo not shown) [36a], the IC50 in experiment [1] was 0.94 ± 0.11 µM; in experiment [2], 4.27 ± 1.02 µM; with HeLa cells, 9.68 ± 1.12 µM; in experiment [3], 9.48 ± 1.11 µM; in experiment [4] it was 11.3 ± 1.27 µM; in the experiment with HCT116 cells, 0.72 ± 0.12 µM.

For the compound `CCCSc1ncnc2c1ncn2C1(C(=O)OCC)CSCC1O` (single isomer, unassigned) [8b], the IC50 in experiment [1] turned out to be 2.37 ± 0.08 µM; in experiment [2] it was 2.82 ± 0.03 µM; in the experiment with HeLa cells, 2.55 ± 0.12 µM; in experiment [3], 11 ± 1.04 µM; in experiment [4], 25.4 ± 2.45 µM; in the experiment on HCT116 cells it was 2.02 ± 0.07 µM.

In the case of `CCOC(=O)C1(n2cnc3c(N4CCCCC4)ncnc32)CSCC1O` (single isomer, unassigned) [5b], the IC50 stood at 2.42 ± 0.11 µM in experiment [1]; 7.52 ± 1.03 µM in experiment [2]; 4.61 ± 0.87 µM in the experiment on HeLa cells; 42.5 ± 2.11 µM in experiment [3]; 35.2 ± 2.14 µM in experiment [4]; 1.77 ± 0.12 µM with HCT116 cells.

Regarding `O=c1[nH]cc(F)c(=O)[nH]1` [5-FU, 5-fluorouracil, reference compound], the IC50 was 3.12 ± 0.13 µM in experiment [1] (Mus musculus, CT26); 8.62 ± 1.21 µM in experiment [2] (Homo sapiens, A-375); 4.93 ± 1.02 µM in the experiment with HeLa cells (Homo sapiens, HeLa, 48 h); 21.4 ± 2.17 µM in experiment [3] (Homo sapiens, DU-145); over 50 µM in experiment [4] (Homo sapiens, MCF7); 9.84 ± 2.32 µM in the experiment on HCT116 cells (Homo sapiens, HCT-116, 48 h).

As to `CCOC(=O)C1(n2cnc3c(N4CCCCC4)nc(F)nc32)CSCC1O` (stereo not shown) [33b], the IC50 in experiment [1] was 0.79 ± 0.14 µM; in experiment [2], 14.67 ± 0.09 µM; in the experiment with HeLa cells, 8.15 ± 1.08 µM; in experiment [3], 18.6 ± 2.12 µM; in experiment [4], 7.47 ± 1.17 µM; in the experiment on HCT116 cells, 0.46 ± 0.04 µM.

In the case of `N.N.[Cl][Pt][Cl]` [Cisplatin, cisplatin, reference compound], the IC50 in experiment [1] was determined as 22.5 ± 1.28 µM; in experiment [2] it was 9.42 ± 0.87 µM; with HeLa cells, 11.2 ± 0.81 µM; in experiment [3], 9.65 ± 0.48 µM; in experiment [4], 6.32 ± 0.74 µM; in the experiment with HCT116 cells it was 5.29 ± 0.25 µM.

For the compound `CCOC(=O)C1(n2cnc3c(N4CCCCC4)ncnc32)CSCC1O` (single isomer, unassigned) [5a], the IC50 in experiment [1] came out at 2.33 ± 0.14 µM; in experiment [2], 11.8 ± 1.12 µM; in the experiment on HeLa cells it was 2.65 ± 0.52 µM; in experiment [3], 42.8 ± 2.12 µM; in experiment [4], 11.2 ± 1.04 µM; with HCT116 cells it was 1.84 ± 0.14 µM.

`CCCSc1ncnc2c1ncn2C1(C(=O)OCC)CSCC1O` (single isomer, unassigned) [8a]: the IC50 was 2.58 ± 0.15 µM in experiment [1]; 4.52 ± 1.12 µM in experiment [2]; 2.77 ± 0.41 µM in the experiment with HeLa cells; 29.3 ± 1.37 µM in experiment [3]; 28.2 ± 2.16 µM in experiment [4]; 3.43 ± 0.23 µM in the experiment on HCT116 cells.

Take `CCOC(=O)C1(n2cnc3c(N4CCCCC4)nc(N)nc32)CSCC1O` (single isomer, unassigned) [32a]: the figures for the IC50 in the experiment on HeLa cells and with HCT116 cells were 5.35 ± 1.05 µM and 0.72 ± 0.08 µM, respectively.

Turning to `CCOC(=O)C1(n2cnc3c(Cl)ncnc32)CSCC1O` (single isomer, unassigned) [2b], the IC50 in the experiment with HeLa cells and in the experiment with HCT116 cells was over 50 µM throughout.
